Experimental data from patent US20100075343A1, “NOVEL PEPTIDES” (priority 2007, published 2010).
Entries after “also recorded” stand apart in the source; their conditions may differ.

Tests used:
[1] = tested on: hypothalamic cells of the apoaequorin-expressing mice; assay: Intracellular calcium ion increase (aequorin luminescence), hypothalamus; assay type: cell-based, mouse; conditions: for increase of intracellular calcium concentration in hypothalamic cells (RLU per second): 1 μmol/L peptide, added at 25 seconds; for luminescence (intracellular calcium ion increase) in hypothalamus: peptide at final concentrations of 1 μmol/L and 5 μmol/L
Method: (§1) A hypothalamus, pituitary gland, kidney, heart, blood vessel, or a portion of brain tissue is collected from transgenic mice systemically expressing apoaequorin (WO02/010371) produced by introducing an apoaequorin gene expression vector into fertilized eggs. The obtained hypothalamus, pituitary gland, kidney, heart, blood vessel, or brain tissue is cut finely into pieces, suspended in a medium containing coelenterazine, and then incubated to incorporate coelenterazine into the cells to form aequorin (a complex of apoaequorin and coelenterazine). Since aequorin luminesces upon binding to intracellular calcium ions, the relative luminescence level in cells before and after addition of a medium containing the peptide or a pharmaceutically acceptable salt thereof is measured in a luminometer every second over time and is used as an indicator of intracellular calcium ion concentration. Increase in the relative luminescence level due to addition of the peptide or pharmaceutically acceptable salt thereof confirms that the peptide or pharmaceutically acceptable salt thereof has the activity to increase intracellular calcium ion concentration.
(§2) Whether Peptides 1 to 8 synthesized in Example 2 have the activity of increasing intracellular calcium ion concentration was investigated using the organs of transgenic mice introduced with the apoaequorin gene and systemically expressing apoaequorin (hereinafter referred to as apoaequorin-expressing mice). In apoaequorin-expressing mouse cells, light is emitted when apoaequorin binds to a calcium ion in the presence of the luminescent substrate coelenterazine and thus the intracellular calcium ion concentration can be monitored. Patent Document (WO02/010371) discloses the method for producing apoaequorin-expressing mice, method for evaluating biologically active substances that use biological samples derived from the mice, and experimental results of evaluating biologically active peptides using the mouse organs as shown below. […] Therefore, apoaequorin-expressing mice can be used in the evaluation of the physiological activities of novel peptides.
(§3) Apoaequorin-expressing mice were produced according to the method disclosed in Reference Example 4 of Patent Document (WO02/010371). The apoaequorin-expressing mice were sacrificed, individual organs including thymus, hypothalamus, spleen, bone, aorta, heart, kidney, adrenal gland, pancreas, pituitary gland, uterus, medulla oblongata, and spinal cord were removed; and each of the organs was cut into small cubes of approximately 1 to 2 mm^3. Next, in 5-mL tubes (Rohren-Tubes; manufactured by Sarstedt, No. 55.476), three portions of each of the prepared organs were added to 50 μL of a 10 μmol/L solution of coelenterazine (manufactured by Molecular Probes) dissolved in RPMI 1640 medium, and these were cultured at 37° C. for three hours. After culturing, RPMI 1640 medium was added, and then Peptides 1 to 5 dissolved in RPMI 1640 medium were added 25 seconds after the addition of RPMI 1640 until each peptide had final concentrations of 1 μmol/L and of 5 μmol/L, and the relative luminescence levels were measured every second immediately after the addition of RPMI 1640 medium by using a luminometer (AutoLumat LB953, manufactured by Berthold).

[2] = tested on: pituitary cells of the apoaequorin-expressing mice; assay: Intracellular calcium ion increase (aequorin luminescence), pituitary gland; assay type: cell-based, mouse; conditions: for increase of intracellular calcium concentration in pituitary cells (RLU per second): added at 25 seconds; for luminescence (intracellular calcium ion increase) in pituitary gland: peptide at final concentrations of 1 μmol/L and 5 μmol/L
Method: as §1, §2, §3

[3] = tested on: thymus of apoaequorin-expressing mice; assay: Intracellular calcium ion increase (aequorin luminescence), thymus; assay type: cell-based, mouse; conditions: peptide at final concentrations of 1 μmol/L and 5 μmol/L
Method: as §1, §2
(§4) Apoaequorin-expressing mice were produced according to the method disclosed in Reference Example 4 of Patent Document (WO02/010371). […] After culturing, RPMI 1640 medium was added, and then Peptides 1 to 5 dissolved in RPMI 1640 medium were added 25 seconds after the addition of RPMI 1640 until each peptide had final concentrations of 1 μmol/L and of 5 μmol/L, and the relative luminescence levels were measured every second immediately after the addition of RPMI 1640 medium by using a luminometer (AutoLumat LB953, manufactured by Berthold).

[4] = tested on: medulla oblongata of apoaequorin-expressing mice; assay: Intracellular calcium ion increase (aequorin luminescence), medulla oblongata; assay type: cell-based, mouse; conditions: peptide at final concentrations of 1 μmol/L and 5 μmol/L
Method: as §1, §2, §3

[5] = tested on: nerve endings in the posterior pituitary gland of AVP-eGFP Tg rats; assay: Continuous measurement of AVP-eGFP fluorescence in rat posterior pituitary gland (vasopressin release); assay type: cell-based; conditions: peptide at final concentration of 10^−6 M in perfusate, last five minutes; control (basal) taken as 1
Excerpt: In transgenic (Tg) rats produced using a fusion gene, which is a vasopressin (arginine vasopressin: AVP) gene inserted with the enhanced green fluorescent protein (eGFP) gene, eGFP is expressed specifically in AVP neurons of the hypothalamus-pituitary system and their axons (Ueta et al., Endocrinology, 146, 406-413, 2005). Vasopressin secretion-promoting activity can be measured using pituitary gland excised from such AVP-eGFP Tg rats.
The pituitary gland is excised from an AVP-eGFP Tg rat and placed in a chamber of a perfusion apparatus filled with perfusate (140 mM NaCl, 5 mM KCl, 10 mM HEPES, 10 mM glucose, 1.2 mM KH2PO4, 1.2 mM MgCl2, 2 mM CaCl2; the pH and osmotic pressure are adjusted to 7.37 and 295 to 300 mOsml, respectively). Laser beam (488 nm) from an excitation light irradiation device (^161C; manufactured by Spectra Physics), is irradiated onto the posterior pituitary gland through an optical fiber (GIF625-100; manufactured by Thorlabs). The eGFP fluorescent light as a result of excitation at nerve endings in the posterior pituitary gland is collected by a phototube (R6249HA; Hamamatsu Photonics) through another optical fiber. After conversion into an electric signal, it can be amplified with an amplifier (C7246; manufactured by Hamamatsu Photonics) to observe the change in the eGFP fluorescence. The amount of change serves as an indicator for the amount of change of AVP-eGFP present in the pituitary gland, and the vasopressin secretion-promoting activity of the VGF-related peptide or a pharmaceutically acceptable salt thereof can be measured.
Specifically, the recording time is set to 10 minutes. As a control (basal), only the perfusate is administered in the first five minutes. Then, a mixture of the perfusate and the VGF-related peptide or a pharmaceutically acceptable salt thereof prepared to have a final concentration of 10^−6 M is administered in the last five minutes. The amount of vasopressin secreted from the pituitary gland can be measured by observing changes in the eGFP fluorescence. […]

[6] = tested on: pancreatic cells of the apoaequorin-expressing mice; assay: Intracellular calcium ion increase (aequorin luminescence), pancreas; assay type: cell-based, mouse; conditions: for luminescence (intracellular calcium ion increase) in pancreas: peptide at final concentrations of 1 μmol/L and 5 μmol/L
Method: as §1
Whether Peptides 1 to 8 synthesized in Example 2 have the activity of increasing intracellular calcium ion concentration was investigated using the organs of transgenic mice introduced with the apoaequorin gene and systemically expressing apoaequorin (hereinafter referred to as apoaequorin-expressing mice). In apoaequorin-expressing mouse cells, light is emitted when apoaequorin binds to a calcium ion in the presence of the luminescent substrate coelenterazine and thus the intracellular calcium ion concentration can be monitored. Patent Document (WO02/010371) discloses the method for producing apoaequorin-expressing mice, method for evaluating biologically active substances that use biological samples derived from the mice, and experimental results of evaluating biologically active peptides using the mouse organs as shown below. […]

[7] = tested on: cardiac cells of the apoaequorin-expressing mice; assay: Intracellular calcium ion increase (aequorin luminescence), heart; assay type: cell-based, mouse
Method: as §1, §2, §3

[8] = tested on: spleen of apoaequorin-expressing mice; assay: Intracellular calcium ion increase (aequorin luminescence), spleen; assay type: cell-based, mouse; conditions: peptide at final concentrations of 1 μmol/L and 5 μmol/L
Method: as §1, §2, §4

[9] = tested on: aortic cells of the apoaequorin-expressing mice; assay: Intracellular calcium ion increase (aequorin luminescence), aorta; assay type: cell-based, mouse
Method: as §1, §2, §4

[10] = 1 μmol/L peptide, added at 25 seconds
[11] = peptide at final concentrations of 1 μmol/L and 5 μmol/L

Substance	increase of intracellular calcium concentration in hypothalamic cells (RLU per second) [1]	luminescence (intracellular calcium ion increase) in hypothalamus [1]	increase of intracellular calcium concentration in pituitary cells (RLU per second) ([2]; 5 μmol/L peptide)	luminescence (intracellular calcium ion increase) in pituitary gland [2]	luminescence (intracellular calcium ion increase) in thymus [3]	luminescence (intracellular calcium ion increase) in medulla oblongata [4]	vasopressin release from nerve endings in the posterior pituitary gland (change in eGFP fluorescence) [5]	increase of intracellular calcium concentration in pituitary cells (RLU per second) ([2]; 1 μmol/L peptide)	luminescence (intracellular calcium ion increase) in pancreas [6]	increase of intracellular calcium concentration in cardiac cells (RLU per second) [7, 10]	luminescence (intracellular calcium ion increase) in heart [7, 11]	luminescence (intracellular calcium ion increase) in spleen [8]	increase of intracellular calcium concentration in aortic cells (RLU per second) [9, 10]	luminescence (intracellular calcium ion increase) in aorta [9, 11]	increase of intracellular calcium concentration in pancreatic cells (RLU per second) ([6]; 5 μmol/L peptide, added at 25 seconds)
Peptide 1: amino acid sequence at position 177 to 206 in human VGF (QQETAAAETETRTHTLTRVNLESPGPERVW; synthetic Peptide 1, VGF-related peptide, human VGF positions 177-206)	increase of intracellular calcium concentration	luminescence was observed	increase of intracellular calcium concentration	luminescence was observed	luminescence was observed	luminescence was observed	reduced eGFP fluorescence; also recorded: vasopressin release	–	–	–	–	–	–	–	–
Peptide 4: amino acid sequence at position 533 to 543 in human VGF (EEDEVYPPGPY; synthetic Peptide 4, VGF-related peptide, human VGF positions 533-543)	increase of intracellular calcium concentration	luminescence was observed	–	luminescence was observed	–	–	–	increase of intracellular calcium concentration	luminescence was observed	–	–	–	–	–	–
Peptide 7: amino acid sequence at position 400 to 417 in human VGF (QNALLFAEEEDGEAGAED; synthetic Peptide 7, VGF-related peptide, human VGF positions 400-417)	increase of intracellular calcium concentration	luminescence was observed	–	luminescence was observed	–	–	–	increase of intracellular calcium concentration	–	increase of intracellular calcium concentration	luminescence was observed	luminescence was observed	increase of intracellular calcium concentration	luminescence was observed	–
Peptide 10: amino acid sequence at position 485 to 503 in human VGF (NAPPEPVPPPRAAPAPTHV; synthetic Peptide 10, VGF-related peptide, human VGF positions 485-503)	increase of intracellular calcium concentration	luminescence was observed	–	luminescence was observed	–	–	–	increase of intracellular calcium concentration	luminescence was observed	–	–	–	–	–	increase of intracellular calcium concentration
Peptide 11: amino acid sequence at position 533 to 552 in human VGF (EEDEVYPPGPYHPFPNYIRP; synthetic Peptide 11, VGF-related peptide, human VGF positions 533-552)	increase of intracellular calcium concentration	luminescence was observed	increase of intracellular calcium concentration	luminescence was observed	–	–	reduced eGFP fluorescence; also recorded: vasopressin release	–	–	–	–	–	–	–	–
Peptide 12: amino acid sequence at position 556 to 585 in rat VGF (TLQPPASSRRRHFHHALPPARHHPDLEAQA; synthetic Peptide 12, VGF-related peptide, rat VGF positions 556-585)	–	–	increase of intracellular calcium concentration	luminescence was observed	–	–	reduced eGFP fluorescence; also recorded: vasopressin release	–	–	–	–	–	–	–	–
